Results published in patent US12329801B2, “Regenerative polypeptides and uses thereof” (JUVENA THERAPEUTICS, INC., priority 2021, dated 2025).

Assays:
[1] = tested on: Aged human myoblasts; assay: Myogenic transcription factor expression in aged human myoblasts (qPCR); type: cell-based
Method: RNA was isolated from each well (RNeasy Mini Kit, Qiagen) and cDNA was obtained by reverse-transcription (High Capacity Reverse Transcription Kit, Thermo Fisher Scientific). Real-time quantitative PCR was performed using QuantStudio3 (Thermo Fisher).
Aged human myoblasts were cultured in well plates. […] Cells that had been cultured with IGF2 had increases in levels of MYOG at 48 hours and levels of MYOD at 72 hours.

[2] = tested on: human myoblast cells; assay: Human myoblast differentiation (% area eMyHC) with IGF2 and/or sodium butyrate; type: cell-based
Method: Fresh media was added every 24 hours. […], cells were pulsed for 2-5 hours with EdU (30 uM), ethanol fixed, stained with Hoescht 3342, immunostained for proliferation—as measured by the percent of cells staining positive for EdU (% EdU)-, and immunostained for differentiation—as measured by the increase in cellular area staining positive for embryonic myosin heavy chain (% eMyHC) relative to the negative controls, which received media and vehicle only. The total area of eMyHc positive cells was analyzed, and treated cells were compared to cells treated with the vehicle alone. […] Significance was determined by a p-value less than 0.05 by the one-way ANOVA Tukey Honest Significant Difference test.
Myoblast were cultured 96 h in the presence of IGF2 at indicated dose. Fresh media and IGF2 was added every 24 h.
Fresh media was added every 24 hours.
Significance was determined by a p-value less than 0.05 by the one-way ANOVA Tukey Honest Significant Difference test.

[3] = tested on: DM1 human myoblast cells; assay: Proliferation (EdU) and fusion (% eMyHC area) in DM1 human myoblast; type: cell-based; conditions: 72 h for proliferation, fold change vs vehicle
Method: FIG. 7A Bar graph of % EdU+ human myoblast (person) and FIG. 7B % area MyHC in response to IGF2. Myoblast were cultured 72 h for proliferation and 96 h for fusion in the presence of indicated factor. Mean∓S.D. Mean∓SD. Significant p-values (EdU: Vehicle˜IGF2: 6.8E-3, % eMyHC Area: Vehicle˜IGF2: 1.9E-4) (*p<0.05 by Students Two-Tailed T-test, n=3-6).
IGF2 was tested individually for its ability to promote proliferation and/or fusion of human muscle progenitor cells from an individual with myotonic dystrophy type 1 (hMD)—a muscular dystrophy caused by mutations in the DMPK1 gene. […] After 72 or 96 hours, cells were pulsed for 2-5 hours with EdU (30 uM), ethanol fixed, stained with Hoescht 3342, immunostained for proliferation—as measured by the percent of cells staining positive for EdU (% EdU)-, and immunostained for differentiation—as measured by the increase in cellular area staining positive for embryonic myosin heavy chain (% eMyHC) relative to the negative controls, which received media and vehicle only. Wells were imaged on a Keyence BZ-100 at 4×, the images quantified in Cell Profiler, and the statistics were computed in R. Additionally, RNA was extracted from myoblast and select transcript abundances quantified by qPCR. […]

[4] = Murine pharmacokinetics, intravenous, ELISA, non-compartment analysis; type: in vivo, mice; conditions: mice 10-12 weeks old, dose 10 mg/kg (HSA-IGF2R61A), 600 ug/kg (IGF2)
Method: Murine pharmacokinetics (PK) represents the absorption, distribution, metabolism, and elimination of drugs from the body. The pharmacokinetic profile of the therapeutic polypeptides were determined in mice (10-12 weeks old). Mice were fed ad libitum and housed under controlled conditions of lighting (12-hour light/12-hour dark) and temperature (22-24° C.). Mice were allowed to acclimate for 3 days prior to the initiation of the experiment. Intravenous (IV) injection in 10-12 weeks old mice. Engineered mitogenic polypeptides concentrations in the samples were measured by ELISA. Various pharmacokinetics will be calculated as well as the absorption/elimination dynamics following different routes of administration.

[5] = Backbone cleavage on expression from CHO cells (reducing SDS-PAGE, Western blot); design: species or system Chinese Hamster; conditions: expressed from CHO cells
Method: The amino acid backbone of IGF2 is cleaved when expressed from Chinese Hamster Ovary (CHO) cells (FIG. 13A) as visualized on a reducing SDS-PAGE and Western blot (FIG. 13B). The CHO cells were grown in a 37° C. incubator with a humidified atmosphere of 8% CO2 on an orbital shaker platform with a shaking speed 125 rpm to reach 4E6 cells/mL, followed by transferring the calculated volume of cells to fresh, pre-warmed ExpiCHO™ Expression Medium in a shake flask. Incubated flasks in a 37° C. incubator with a humidified atmosphere of 8% CO2 shook on an orbital shaker platform until cultures reached a density of 4×106−6×10^6 viable cells/mL.
After mixing each plasmid with 100 ul SFM in a microtube; ExpiFectamine (8 ul ×10.5=84 ul) with OptiPro medium (92 ul×10.5=966 ul) in a microtube; adding 100 ul into the plasmid tube and mix by pipetting; After 5 min, add 200 ul into each well and swirl to mix. mix enhancer (15×10.2=153 ul) with feed ([…]), add 615 ul into each well. Culture supernatant collected at intervals was spun down at low speed and high speed, then frozen at −80 deg. Aliquots were analyzed for protein concentration by nanodrop, and then an equivalent amount loaded onto 4-12% SDS-PAGE gels for molecular weight distribution analysis. […]

“IGF2: Human IGF2 amino acid sequence, SEQ ID NO: 29” showed an MYF5 fold change ([1]; 48 h) of 0.409, an MYOD1 fold change ([1]; 48 h) of 0.519 and an MYOG fold change ([1]; 48 h) of 5.756. It also gave an MYF5 fold change ([1]; 72 h) of 0.708, an MYOD1 fold change ([1]; 72 h) of 5.723 and an MYOG fold change ([1]; 72 h) of 0.018. For the same substance, the “% eMyHC” value ([2]; IGF2 0.015 ug/mL alone, 96 h (FIG. 3B/3C)) was 10.843%, the “% eMyHC” value ([2]; IGF2 0.03 ug/mL alone, 48 hours (FIG. 4A/4B)) was 16.620% and the “EdU FC” value [3] was 2.18. The Half-life [4] was 2.85 h and the “cleavage of the IGF2 amino acid backbone” value [5] was “is cleaved”.
